Data from ChEMBL document CHEMBL1201862, “PubChem BioAssay data set” (2004).
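Assay format: 96-well plates, 48-hour exposure. GI50 is the concentration that inhibits growth by half.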 Active and inactive are the calls of the source. Cut-off read from the data, not from the text of the source: active = GI50 up to about 1.1 µM and inactive = higher.

Legend:
Test in all cases: NCI-60 cell line screen, 48 h
786-0 = test system: 786-0
A498 = test system: A498
A549 = test system: A549
CAKI-1 = test system: CAKI-1
EKVX = test system: EKVX
LOX IMVI = test system: LOX IMVI
MDA-MB-231 = test system: MDA-MB-231
NCI-H522 = test system: NCI-H522
NCI/ADR-RES = test system: NCI/ADR-RES
OVCAR-3 = test system: OVCAR-3
RPMI-8226 = test system: RPMI-8226
RXF 393 = test system: RXF 393
SK-MEL-5 = test system: SK-MEL-5
SK-OV-3 = test system: SK-OV-3
SNB-19 = test system: SNB-19
U-251 = test system: U-251
UACC-257 = test system: UACC-257
ACHN = test system: ACHN
HOP-92 = test system: HOP-92
MDA-N = test system: MDA-N

Row | SMILES | GI50 (786-0) | GI50 (A498) | GI50 (A549) | GI50 (CAKI-1) | GI50 (EKVX) | GI50 (LOX IMVI) | GI50 (MDA-MB-231) | GI50 (NCI-H522) | GI50 (NCI/ADR-RES) | GI50 (OVCAR-3) | GI50 (RPMI-8226) | GI50 (RXF 393) | GI50 (SK-MEL-5) | GI50 (SK-OV-3) | GI50 (SNB-19) | GI50 (U-251) | GI50 (UACC-257) | GI50 (ACHN) | GI50 (HOP-92) | GI50 (MDA-N)
1 | COc1ccccc1N=C(S)Nc1ccccn1 | 56.5 µM (inactive) | > 100 µM (inactive) | > 100 µM (inactive) | > 100 µM (inactive) | 55 µM (inactive) | > 100 µM (inactive) | > 100 µM (inactive) | 43.4 µM (inactive) | > 100 µM (inactive) | > 100 µM (inactive) | > 100 µM (inactive) | 59 µM (inactive) | > 100 µM (inactive) | > 100 µM (inactive) | 73.8 µM (inactive) | 58.5 µM (inactive) | > 100 µM (inactive) | – | – | –
2 | O=CN/C=C/c1ccccc1 | > 100 µM (inactive) | > 100 µM (inactive) | > 100 µM (inactive) | > 100 µM (inactive) | > 100 µM (inactive) | > 100 µM (inactive) | – | > 100 µM (inactive) | – | > 100 µM (inactive) | > 100 µM (inactive) | > 100 µM (inactive) | > 100 µM (inactive) | > 100 µM (inactive) | > 100 µM (inactive) | > 100 µM (inactive) | > 100 µM (inactive) | > 100 µM (inactive) | > 100 µM (inactive) | –
3 | Oc1ccc2c(c1)-c1c(c3ccccc3n1CCN1CCOCC1)CC2 | 33.7 µM (inactive) | > 100 µM (inactive) | – | 32.6 µM (inactive) | 53.2 µM (inactive) | 39.7 µM (inactive) | > 100 µM (inactive) | – | 32.7 µM (inactive) | 33.5 µM (inactive) | > 100 µM (inactive) | 66.7 µM (inactive) | 40.6 µM (inactive) | 27.5 µM (inactive) | 38.6 µM (inactive) | 42.3 µM (inactive) | 27.9 µM (inactive) | 23.1 µM (inactive) | – | 33.7 µM (inactive)
4 | COC(=O)C1Cc2c(n(C)c3ccccc23)C(CCC(=O)O)N1Cc1ccccc1 (stereo not given) | > 100 µM (inactive) | 15.2 µM (inactive) | 31 µM (inactive) | 37.2 µM (inactive) | 46.1 µM (inactive) | 37.8 µM (inactive) | – | 22.7 µM (inactive) | – | 21.1 µM (inactive) | 16.1 µM (inactive) | 28.6 µM (inactive) | 27.3 µM (inactive) | 36.5 µM (inactive) | 33.2 µM (inactive) | 37.7 µM (inactive) | 43.2 µM (inactive) | 19.6 µM (inactive) | 23.6 µM (inactive) | –
5 | COc1ccc(NC(=O)/C(CC2=Nc3ccc([N+](=O)[O-])cc3NC2O)=N\NC(=O)C[N+](C)(C)C)c(OC)c1 (stereo not given) | 30.1 µM (inactive) | – | 40.5 µM (inactive) | > 100 µM (inactive) | 54.7 µM (inactive) | 62.1 µM (inactive) | 12.9 µM (inactive) | 18 µM (inactive) | 40.6 µM (inactive) | > 100 µM (inactive) | – | 21.6 µM (inactive) | 22.2 µM (inactive) | 89.9 µM (inactive) | > 100 µM (inactive) | 40.7 µM (inactive) | > 100 µM (inactive) | 67.5 µM (inactive) | 72.3 µM (inactive) | > 100 µM (inactive)
6 | Oc1ncnc2c1nnn2CCCn1nnc2c(O)ncnc21 | > 100 µM (inactive) | > 100 µM (inactive) | > 100 µM (inactive) | > 100 µM (inactive) | > 100 µM (inactive) | > 100 µM (inactive) | – | > 100 µM (inactive) | – | > 100 µM (inactive) | > 100 µM (inactive) | > 100 µM (inactive) | > 100 µM (inactive) | > 100 µM (inactive) | > 100 µM (inactive) | > 100 µM (inactive) | > 100 µM (inactive) | > 100 µM (inactive) | > 100 µM (inactive) | –
7 | O=c1[nH]c(N/N=C\C(=N/Nc2nc3ccccc3c(=O)[nH]2)C(O)C(O)C(O)CO)nc2ccccc12 (stereo not given) | > 100 µM (inactive) | > 100 µM (inactive) | > 100 µM (inactive) | > 100 µM (inactive) | > 100 µM (inactive) | > 100 µM (inactive) | > 100 µM (inactive) | – | > 100 µM (inactive) | > 100 µM (inactive) | > 100 µM (inactive) | – | > 100 µM (inactive) | > 100 µM (inactive) | > 100 µM (inactive) | > 100 µM (inactive) | > 100 µM (inactive) | > 100 µM (inactive) | > 100 µM (inactive) | > 100 µM (inactive)
8 | COc1cc2c(c(OC)c1OC)-c1ccc(SC)cc1C(O)CC2 (stereo not given) | < 0.01 µM (active) | 12.1 µM (inactive) | < 0.01 µM (active) | 0.071 µM (active) | 2.54 µM (inactive) | < 0.01 µM (active) | 0.394 µM (active) | < 0.01 µM (active) | – | < 0.01 µM (active) | < 0.01 µM (active) | – | < 0.01 µM (active) | – | < 0.01 µM (active) | – | – | < 0.01 µM (active) | > 100 µM (inactive) | 0.19 µM (active)
9 | O=C(CSCC(=O)N/N=C\c1ccc(-c2ccccc2)cc1)N/N=C\c1ccc(-c2ccccc2)cc1 | 33.2 µM (inactive) | – | 25.8 µM (inactive) | 40.5 µM (inactive) | 45.2 µM (inactive) | 16.3 µM (inactive) | 10.7 µM (inactive) | 13.5 µM (inactive) | 56.4 µM (inactive) | 16.1 µM (inactive) | – | 50.5 µM (inactive) | 39.9 µM (inactive) | 18.9 µM (inactive) | 26.2 µM (inactive) | 17.7 µM (inactive) | 35.7 µM (inactive) | 23.9 µM (inactive) | 45.6 µM (inactive) | –
10 | CCCCC1(NN=C2CCCCC2)C(=O)N(c2ccccc2)N(c2ccccc2)C1=O | > 100 µM (inactive) | – | > 100 µM (inactive) | > 100 µM (inactive) | > 100 µM (inactive) | – | > 100 µM (inactive) | 83 µM (inactive) | > 100 µM (inactive) | > 100 µM (inactive) | 62.1 µM (inactive) | > 100 µM (inactive) | > 100 µM (inactive) | > 100 µM (inactive) | > 100 µM (inactive) | > 100 µM (inactive) | > 100 µM (inactive) | > 100 µM (inactive) | – | > 100 µM (inactive)
11 | C=C1c2c(n(S(=O)(=O)c3ccccc3)c3ccccc23)[C@@]2(C(=O)OC)CC3C=CC2N1C3 | > 100 µM (inactive) | – | > 100 µM (inactive) | > 100 µM (inactive) | > 100 µM (inactive) | > 100 µM (inactive) | > 100 µM (inactive) | > 100 µM (inactive) | > 100 µM (inactive) | > 100 µM (inactive) | 41.3 µM (inactive) | > 100 µM (inactive) | – | > 100 µM (inactive) | > 100 µM (inactive) | > 100 µM (inactive) | > 100 µM (inactive) | > 100 µM (inactive) | > 100 µM (inactive) | > 100 µM (inactive)
12 | Cc1cn([C@H]2C[C@@H]3[C@@H](COC(CCl)N3O)O2)c(=O)[nH]c1=O (stereo not given in full) | > 100 µM (inactive) | > 100 µM (inactive) | > 100 µM (inactive) | > 100 µM (inactive) | > 100 µM (inactive) | > 100 µM (inactive) | – | > 100 µM (inactive) | > 100 µM (inactive) | > 100 µM (inactive) | > 100 µM (inactive) | > 100 µM (inactive) | > 100 µM (inactive) | > 100 µM (inactive) | > 100 µM (inactive) | > 100 µM (inactive) | > 100 µM (inactive) | – | – | > 100 µM (inactive)
13 | CCCCSC(=CC(=O)c1cccc(C(=O)C=C(SCCCC)SCCCC)n1)SCCCC | > 100 µM (inactive) | > 100 µM (inactive) | > 100 µM (inactive) | > 100 µM (inactive) | > 100 µM (inactive) | > 100 µM (inactive) | – | > 100 µM (inactive) | – | > 100 µM (inactive) | > 100 µM (inactive) | > 100 µM (inactive) | > 100 µM (inactive) | > 100 µM (inactive) | > 100 µM (inactive) | > 100 µM (inactive) | > 100 µM (inactive) | > 100 µM (inactive) | > 100 µM (inactive) | –
14 | CCN(CC)C(=O)Cn1c(-c2ccccc2)cc2ccccc21 | 45.1 µM (inactive) | – | 33 µM (inactive) | – | 16.6 µM (inactive) | 25.4 µM (inactive) | 37.5 µM (inactive) | 28 µM (inactive) | 23.4 µM (inactive) | > 100 µM (inactive) | > 10 µM (inactive) | 22.9 µM (inactive) | 15.6 µM (inactive) | 40.8 µM (inactive) | 42.8 µM (inactive) | 40.1 µM (inactive) | 41.9 µM (inactive) | 30.9 µM (inactive) | 27.7 µM (inactive) | 28.1 µM (inactive)
15 | N#Cc1c(-c2ccc(F)cc2)c(-c2ccc(F)cc2)nn(CCO)c1=O | 0.421 µM (active) | – | 0.25 µM (active) | 1.53 µM (inactive) | 0.47 µM (active) | – | 0.661 µM (active) | – | 0.805 µM (active) | 0.242 µM (active) | 0.213 µM (active) | 0.378 µM (active) | 0.175 µM (active) | 0.288 µM (active) | 4.9 µM (inactive) | 0.178 µM (active) | 1.19 µM (inactive) | 0.413 µM (active) | 1.91 µM (inactive) | 0.0492 µM (active)
16 | O=C1Nc2ccc(Br)cc2/C1=C/C(=O)c1ccccc1 | 1.67 µM (inactive) | 18.6 µM (inactive) | 16.1 µM (inactive) | 7.74 µM (inactive) | 14.5 µM (inactive) | 1.93 µM (inactive) | 15.5 µM (inactive) | 2.22 µM (inactive) | – | 6.82 µM (inactive) | 2.46 µM (inactive) | 1.95 µM (inactive) | 16.7 µM (inactive) | 17.6 µM (inactive) | 19.4 µM (inactive) | 17.9 µM (inactive) | 15.1 µM (inactive) | 1.87 µM (inactive) | 4.13 µM (inactive) | –
